# Laboratory results published in patent US9765115B2, “Inhibitors of metastasis, methods of generating such inhibitors and their therapeutic applications” (Board of Supervisors of Louisiana State University acting …, priority 2011, dated 2017).
# How the values were obtained:
# Assay type in all cases: cell-based
# [1] = tested on: PC-3CTRΔESS cells; experiment: Transepithelial electric resistance (TER)
# Protocol: (§1) Cells were plated on Transwell filters (0.4 μm pore size) and grown to confluency in complete medium (RPMI1640 containing 10% fetal bovine serum, 20 mM HEPES and antibiotics). TER of the cultures (in duplicate wells) was measured at several time intervals with EVOM volt-ohm meter as previously described (Shah et al, 2009). The readings were corrected for blank (TER values from the filter in bathing medium). The integrity and cell density of monolayers were carefully monitored.
# (§2) To examine the effect of calcitonin (CT) on tight junctions (TJs), the transepithelial electric resistance (TER) of polarized PC-3 cells expressing either the vector (PC-3V), CTRwt or CTRΔESS was monitored for 8 hours after CT stimulation (FIG. 2A). Polarized PC-3V, PC-3 CTRwt and PC-3 CTR-ΔESS cells were serum-starved for 4 hours, then treated with or without 50 nM CT. TER was measured with EVOM volt-ohm meter, and results expressed as Ωcm^2±SEM (n=6). […] Since PC-3 cells secrete CT, the expression of CTRwt may have activated CT-CTR axis causing almost 40% reduction of TER in PC-3CTRwt cells.
# [2] = tested on: PC-3V cells; experiment: Transepithelial electric resistance (TER); settings: 50 nM CT
# Protocol: as §1, §2
# [3] = target: T1, CTR-ZO-1 interaction (Homo sapiens, UniProt P30988, E471A/S472A/S473A); experiment: In situ proximity ligation assay (PLA); settings: PC-3CTRΔESS cells, with or without CT
# T1 construct: PCR generated full length CTRwt and CTRΔESS cDNAs were cloned directionally into pcDNA3.1 mammalian expression vector; FLAG (N); expressed in transfected cells; host or cells: PC-31 / PC-3 cells stably expressing FLAG-CTRwt; ZO-1 is the cells' own
# T1 sequence (P30988 with tags, fused parts or gaps): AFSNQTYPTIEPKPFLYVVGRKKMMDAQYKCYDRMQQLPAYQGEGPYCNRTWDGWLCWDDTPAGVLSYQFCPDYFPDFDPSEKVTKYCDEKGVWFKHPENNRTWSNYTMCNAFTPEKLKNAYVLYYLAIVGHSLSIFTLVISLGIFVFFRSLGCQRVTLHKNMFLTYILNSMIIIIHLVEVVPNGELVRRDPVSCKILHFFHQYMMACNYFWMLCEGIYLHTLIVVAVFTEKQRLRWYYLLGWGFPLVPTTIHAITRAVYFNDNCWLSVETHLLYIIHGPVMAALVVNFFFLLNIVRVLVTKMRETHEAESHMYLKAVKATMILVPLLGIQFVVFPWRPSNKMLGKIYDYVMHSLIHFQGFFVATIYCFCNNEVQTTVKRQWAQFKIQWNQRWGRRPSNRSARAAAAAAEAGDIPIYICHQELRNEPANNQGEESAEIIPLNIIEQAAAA
# Protocol: (§3) Fixed PC cells or tissues were immunolabeled with primary antibodies (anti-rabbit ZO-1 serum and anti-goat CTR serum) for overnight at 4° C. The secondary antibodies with attached PLA probes were supplied in the Duolink™ kit (Olink Bioscience, Uppsala, Sweden). CTR-ZO-1 interaction was observed by confocal microscopy at 400×. A red fluorescent dot indicated the two proteins are within 35 nm distance. The number of dots per cell was determined by Blobfinder™ image analysis software (Allalou et al., 2009).
# (§4) Next, CTR-ZO-1 interaction was examined in PC-3CTRwt cells. […] Each dot represents an interaction between activated CTR and ZO-1, detected by in situ PLA™ using the Duolink® kit. Nuclei were stained with DAPI. The graph presents quantitative data of CTR-ZO-1 interactions in three separate but identical experiments (mean±SEM; n=6, p<0.001, paired t-test). […] Next, this phenomenon was examined in LNCaP cells, which are androgen-responsive and endogenously express CTR but not CT (Karpova et al., 2006). […] Finally, non-metastatic and metastatic PC specimens were examined in a similar experiment.
# (§5) Since CTR directly interacts with ZO-1 through PDZ domain, whether CT-induced endocytosis of ZO-1 is caused by CTR-mediated events prior to or subsequent to CTR-ZO-1 interaction was tested. To determine the time course of CTR-ZO-1 interaction, in situ PLA assay was used (FIG. 15D). […] Representative micrographs are shown of CTR-ZO-1 interactions in PC-3CTRwt cells at various time periods (0-300 seconds) after CT stimulus. Each highlighted dot represents an interaction between activated CTR and ZO-1, detected by in situ PLA™ using the Duolink® kit. Nuclei were stained with DAPI. The line graph presents the mean±SEM of dots at each time point (n=6). […] Considering that ZO-1 endocytosis was observed after 1 minute of CT stimulus, it is conceivable that CTR-mediated events subsequent to CTR-ZO-1 interaction may be associated with TJ protein endocytosis.
# [4] = tested on: CTR-ZO-1 interaction; experiment: In situ proximity ligation assay (PLA); settings: LNCaP cells, CT 50 nM, 30 seconds
# Protocol: as §3, §4, §5
substance,measurement,setting,value
calcitonin [CT],TER,[1]; 50 nM CT,did not affect TER
same,TER at multiple CT concentrations,[1]; all CT concentrations,did not show any changes
same,TER,[2],did not alter it
same,CTR-ZO-1 interactions (PLA dots),[3],no CTR-ZO-1 interactions were observed
same,CTR-ZO-1 interactions (PLA dots),[4],strong interaction
